Source: patent US7368578B2, “Five-membered heterocyclic compounds” (Takeda Pharmaceutical Company Limited, priority 2002, dated 2008)

For COc1cc(COc2nn(Cc3ccccc3)cc2C(N)=O)ccc1OCc1nc(-c2ccccc2)oc1C [Example 3, 1-benzyl-3-({3-methoxy-4-[(5-methyl-2-phenyl-1,3-oxazol-4-yl)methoxy]benzyl}oxy)-1H-pyrazole-4-carboxamide], the melting point was 164 to 165 °C. Work on CCOC(=O)c1cn(Cc2ccccc2)nc1OCc1cccc(OCc2nc(-c3ccco3)oc2C)c1 [Example 26, ethyl 1-benzyl-3-[(3-{[2-(2-furyl)-5-methyl-1,3-oxazol-4-yl]methoxy}benzyl)oxy]-1H-pyrazole-4-carboxylate] yielded a melting point of 92 to 93 °C. Work on COc1cc(COc2nn(-c3ccccc3)cc2/C=C/c2nc(N3CCN(C(=O)OC(C)(C)C)CC3)sc2C)ccc1OCc1nc(-c2ccc(CC(=O)O)cc2)oc1C [Example 381, [4-(4-{[4-({[4-((E)-2-{2-[4-(tert-butoxycarbonyl)piperazin-1-yl]-5-methyl-1,3-thiazol-4-yl}ethenyl)-1-phenyl-1H-pyrazol-3-yl]oxy}methyl)-2-methoxyphenoxy]methyl}-5-methyl-1,3-oxazol-2-yl)phenyl]acetic acid] yielded a melting point of 119 to 120 °C. In the case of CCOP(=O)(/C=C/c1cn(-c2ccccc2)nc1OCc1ccc(OCc2nc(-c3cccc(C#N)c3)oc2C)c(OC)c1)OCC, the melting point is reported as 147 to 148 °C. With CCOC(=O)Cc1ccc(-c2nc(COc3ccc(COc4nn(-c5ccccc5)cc4/C=C\c4cnn(CC)c4)cc3OC)c(C)o2)cc1 [Example 346, ethyl {4-[4-({4-[({4-[(Z)-2-(1-ethyl-1H-pyrazol-4-yl)ethenyl]-1-phenyl-1H-pyrazol-3-yl}oxy)methyl]-2-methoxyphenoxy}methyl)-5-methyl-1,3-oxazol-2-yl]phenyl}acetate] the melting point was 140 to 141 °C. With COc1cc(COc2nn(-c3ccccc3)cc2C(N)=O)ccc1OCc1nc(-c2ccco2)oc1C [Example 74, 3-[(4-{[2-(2-furyl)-5-methyl-1,3-oxazol-4-yl]methoxy}-3-methoxybenzyl)oxy]-1-phenyl-1H-pyrazole-4-carboxamide] the melting point was 175 to 176 °C. With COc1cc(COc2nn(Cc3ccccc3)cc2C(=O)O)ccc1OCc1nc(-c2ccco2)oc1C [Example 13, 1-benzyl-3-[(4-{[2-(2-furyl)-5-methyl-1,3-oxazol-4-yl]methoxy}-3-methoxybenzyl)oxy]-1H-pyrazole-4-carboxylic acid] the melting point was 167 to 168 °C. Work on CCOC(=O)/C=C/c1cn(-c2ccc(C(F)(F)F)cc2)nc1OCc1ccc(OCc2nc(-c3ccccc3)oc2C)c(OC)c1 [Example 295, ethyl (2E)-3-{3-({3-methoxy-4-[(5-methyl-2-phenyl-1,3-oxazol-4-yl)methoxy]benzyl}oxy)-1-[4-(trifluoromethyl)phenyl]-1H-pyrazol-4-yl}-2-propenoate] yielded a melting point of 205 to 206 °C. With Cc1oc(-c2ccco2)nc1COc1ccc(COc2nn(Cc3ccccc3)cc2C(=O)O)cc1 [Example 7, 1-benzyl-3-[(4{[2-(2-furyl)-5-methyl-1,3-oxazol-4-yl]methoxy}benzyl)oxy]-1H-pyrazole-4-carboxylic acid] the melting point was 170 to 171 °C. CCOC(=O)/C=C/c1cc(OCc2ccc(OCc3nc(-c4ccccc4)oc3C)c(OC)c2)nn1-c1ccccc1 [Example 299, ethyl (E)-3-(3-{[3-methoxy-4-(5-methyl-2-phenyl-1,3-oxazol-4-ylmethoxy)benzyl]oxy}-1-phenyl-1H-pyrazol5-yl)-2-propenoate] showed a melting point of 121 to 122 °C. COc1cc(COc2cc(CCc3ccccn3)n(-c3ccccc3)n2)ccc1OCc1nc(-c2ccco2)oc1C [Example 141, 2-(2-{3-[(4-{[2-(2-furyl)-5-methyl-1,3-oxazol-4-yl]methoxy}-3-methoxybenzyl)oxy]-1-phenyl-1H-pyrazol-5-yl}ethyl)pyridine] showed a melting point of 104 to 105 °C. Molecule COc1cc(COc2nn(-c3ccccc3)cc2Cn2cncn2)ccc1OCc1nc(-c2ccco2)oc1C [Example 122, 1-({3-[(4-{[2-(2-furyl)-5-methyl-1,3-oxazol-4-yl]methoxy}-3-methoxybenzyl)oxy]-1-phenyl-1H-pyrazol-4-yl}methyl)-1H-1,2,4-triazole] has a melting point of 149 to 150 °C. Cc1oc(-c2ccco2)nc1COc1ccc(COc2nn(Cc3ccccc3)cc2C=O)cc1 [Example 11, 1-benzyl-3-[(4{[2-(2-furyl)-5-methyl-1,3-oxazol-4-yl]methoxy}benzyl)oxy]-1H-pyrazole-4-carbaldehyde] showed a melting point of 118 to 119 °C. Work on COc1cc(COc2nn(Cc3ccccc3)cc2C=O)ccc1OCc1nc(-c2ccco2)oc1C [Example 16, 1-benzyl-3-[(4-{[2-(2-furyl)-5-methyl-1,3-oxazol-4-yl]methoxy}-3-methoxybenzyl)oxy]-1H-pyrazole-4-carbaldehyde] yielded a melting point of 139 to 140 °C. CCc1nc(/C=C/c2cn(-c3ccccc3)nc2OCc2ccc(OCc3nc(/C=C/C(=O)O)oc3C)c(OC)c2)cs1 [Example 323, (2E)-3-[4-({4-[({4-[(E)-2-(2-ethyl-1,3-thiazol-4-yl)ethenyl]-1-phenyl-1H-pyrazol-3-yl}oxy)methyl]-2-methoxyphenoxy}methyl)-5-methyl-1,3-oxazol-2-yl]-2-propenoic acid] gave a melting point of 125 to 126 °C. With CCOC(=O)Cc1ccc(-c2nc(COc3ccc(COc4nn(-c5ccccc5)cc4/C=C/c4nc(CC)sc4C)cc3OC)c(C)o2)cc1 [Example 378, ethyl {4-[4-({4-[({4-[(E)-2-(2-ethyl-5-methyl-1,3-thiazol-4-yl)ethenyl]-1-phenyl-1H-pyrazol-3-yl}oxy)methyl]-2-methoxyphenoxy}methyl)-5-methyl-1,3-oxazol-2-yl]phenyl}acetate] the melting point was 127 to 128 °C. CCCc1nnc(Cc2cn(-c3ccccc3)nc2OCc2ccc(OCc3nc(-c4ccco4)oc3C)c(OC)c2)o1 [Example 120, 2-({3-[(4-{[2-(2-furyl)-5-methyl-1,3-oxazol-4-yl]methoxy}-3-methoxybenzyl)oxy]-1-phenyl-1H-pyrazol-4-yl}methyl)-5-propyl-1,3,4-oxadiazole] gave a melting point of 102 to 103 °C. For COc1cc(COc2nn(-c3ccccc3)cc2C=O)ccc1OCc1nc(-c2cccc(O)c2)oc1C [Example 234, 3-[(4-{[2-(3-hydroxyphenyl)-5-methyl-1,3-oxazol-4-yl]methoxy}-3-methoxybenzyl)oxy]-1-phenyl-1H-pyrazole-4-carbaldehyde], the melting point was 193 to 194 °C. For CCOC(=O)c1cn(Cc2ccccc2)nc1OCc1ccc(OCc2nc(-c3ccco3)oc2C)c(OCOC)c1 [Example 39, ethyl 1-benzyl-3-[(4-{[2-(2-furyl)-5-methyl-1,3-oxazol-4-yl]methoxy}-3-(methoxymethoxy)benzyl)oxy]-1H-pyrazole-4-carboxylate], the melting point was 120 to 121 °C. Work on Cc1oc(-c2ccccc2)nc1COc1ccc2c(-c3ccccc3)c(COc3nn(-c4ccccc4)cc3C=O)oc2c1 [Example 67, 3-({6-[(5-methyl-2-phenyl-1,3-oxazol-4-yl)methoxy]-3-phenyl-1-benzofuran-2-yl}methoxy)-1-phenyl-1H-pyrazole-4-carbaldehyde] yielded a melting point of 176 to 177 °C. Cc1oc(-c2ccco2)nc1COc1ccc(COc2nn(-c3ccccc3)cc2/C=C/C(=O)O)cc1 [Example 88, (2E)-3-{3-[(4-{[2-(2-furyl)-5-methyl-1,3-oxazol-4-yl]methoxy}benzyl)oxy]-1-phenyl-1H-pyrazol-4-yl}-2-propenoic acid] showed a melting point of 144 to 145 °C. COc1cc(COc2nn(-c3ccccc3)cc2C(N)=O)ccc1OCc1nc(-c2ccccc2)oc1C [Example 276, 3-{[3-methoxy-4-(5-methyl-2-phenyl-1,3-oxazol-4-ylmethoxy)benzyl]oxy}-1-phenyl-1H-pyrazole-4-carboxamide] showed a melting point of 190 to 191 °C. With CCOC(=O)c1cn(Cc2ccccc2)nc1OCc1ccc(OCc2nc(-c3ccccc3)oc2C)cc1 [Example 20, ethyl 1-benzyl-3-({4-[(5-methyl-2-phenyl-1,3-oxazol-4-yl)methoxy]benzyl}oxy)-1H-pyrazole-4-carboxylate] the melting point was 99 to 100 °C. Work on COc1cc(COc2nn(Cc3ccccc3)cc2C=O)ccc1OCc1nc(-c2ccccc2)oc1C [Example 5, 1-benzyl-3-({3-methoxy-4-[(5-methyl-2-phenyl-1,3-oxazol-4-yl)methoxy]benzyl}oxy)-1H-pyrazole-4-carbaldehyde] yielded a melting point of 151 to 152 °C. With COc1cc(COc2nn(-c3ccccc3)cc2/C=C/C(C)=O)ccc1OCc1nc(-c2ccco2)oc1C [Example 155, (3E)-4-{3-[(4-{[2-(2-furyl)-5-methyl-1,3-oxazol-4-yl]methoxy}-3-methoxybenzyl)oxy]-1-phenyl-1H-pyrazol-4-yl}-3-buten-2-one] the melting point was 177 to 178 °C. In the case of CCOC(=O)c1cn(-c2ccccc2)nc1OCc1oc2cc(OCc3nc(-c4ccccc4)oc3C)ccc2c1-c1ccccc1 [Example 64, ethyl 3-({6-[(5-methyl-2-phenyl-1,3-oxazol-4-yl)methoxy]-3-phenyl-1-benzofuran-2-yl}methoxy)-1-phenyl-1H-pyrazole-4-carboxylate], the melting point is reported as 143 to 144 °C. With COC(=O)c1cc(-c2nc(COc3ccc(COc4nn(-c5ccccc5)cc4C=O)cc3OC)c(C)o2)ccc1C [Example 319, methyl 5-{4-[(4-{[(4-formyl-1-phenyl-1H-pyrazol-3-yl)oxy]methyl}-2-methoxyphenoxy)methyl]-5-methyl-1,3-oxazol-2-yl}-2-methylbenzoate] the melting point was 195 to 196 °C. Work on CCc1nnc(/C=C/c2cn(-c3ccccc3)nc2OCc2ccc(OCc3nc(-c4ccco4)oc3C)c(OC)c2)o1 [Example 126, 2-ethyl-5-((E)-2-{3-[(4-{[2-(2-furyl)-5-methyl-1,3-oxazol-4-yl]methoxy}-3-methoxybenzyl)oxy]-1-phenyl-1H-pyrazol-4-yl}ethenyl)-1,3,4-oxadiazole] yielded a melting point of 183 to 184 °C. With Cc1oc(-c2ccccc2)nc1COc1cccc(COc2nn(Cc3ccccc3)cc2C=O)c1 [Example 25, 1-benzyl-3-({3-[(5-methyl-2-phenyl-1,3-oxazol-4-yl)methoxy]benzyl}oxy)-1H-pyrazole-4-carbaldehyde] the melting point was 131 to 132 °C. In the case of COc1cc(CC(=O)Nc2nn(-c3ccccc3)cc2C=O)ccc1OCc1nc(-c2ccco2)oc1C [Example 303, N-(4-formyl-1-phenyl-1H-pyrazol-3-yl)-2-(4-{[2-(2-furyl)-5-methyl-1,3-oxazol-4-yl]methoxy}-3-methoxyphenyl)acetamide], the melting point is reported as 190 to 191 °C.
